# Data published in patent publication US20170049718A1, “DRUG FOR TREATMENT OF TINNITUS PATIENTS” (KYORIN PHARMACEUTICAL CO., LTD., priority 2014, published 2017).
# Legend:
# [1] = test system: patients having tinnitus; test: 24-week placebo controlled, randomized, double-blind comparative trial, TRSw score; type: in vivo, human; parameters: key to Change in TRSw score: LS mean change in TRSw score from week 0 to week 24; <0 = better; conditions: for Change in TRSw score, Neramexane-placebo / Change in TRSw score: 24 weeks; for Change in TRSw score: 50 mg/day
# Text: A therapeutic effect can be evaluated by physician inquiry using a questionnaire form such as TRSw (Tinnitus Rating Scale One-Week Version) (Acta Otolaryngol., 2013, 133(5), 491-498).
# The efficacy of neramexane mesylate on patients with tinnitus associated with age-related hearing loss, tinnitus associated with auditory disorder in the range of the human voice at an auditory threshold value exceeding 25 dB, tinnitus that includes two or more different tinnitus sounds or tinnitus that includes a tinnitus sound that is not high-frequency alone, was evaluated in a 24-week, placebo controlled, randomized, double-blind comparative trial.
# The film coated tablets containing 12.5 mg neramexane mesylate or placebo tablets were administered for 24 weeks to patients having tinnitus. The dosage was started from 12.5 mg/day, gradually increasing the dose to 50 mg/day over 4 weeks, and maintaining the same dose thereafter.
# The therapeutic effect of neramexane mesylate for the patients was evaluated using the TRSw score. Statistical analysis was performed using a mixed-effect model repeated measure (MMRM) taking into consideration the covariance structure of error for the patient, with the change in TRSw score from before administration of neramexane mesylate tablets or placebo tablets (0 weeks) to each evaluation time point as the response variable, and with the drug-administered group, evaluation time point, interaction between drug-administered group and evaluation time point, 0-week TRSw score, gender and body weight as […]. The numerical values in the table represent least mean squares for the change in TRSw score at 24 weeks after administration. A change in score of less than 0 indicates a higher therapeutic effect.
# [2] = target: α9/α10 nicotinic acetylcholine receptors (Rattus norvegicus, UniProt P43144+Q9JLB5); conditions: Plazas, et al., Eur J Pharmacol., 2007; cited from earlier work
# Chain of α9/α10 nicotinic acetylcholine receptors (P43144 26-479): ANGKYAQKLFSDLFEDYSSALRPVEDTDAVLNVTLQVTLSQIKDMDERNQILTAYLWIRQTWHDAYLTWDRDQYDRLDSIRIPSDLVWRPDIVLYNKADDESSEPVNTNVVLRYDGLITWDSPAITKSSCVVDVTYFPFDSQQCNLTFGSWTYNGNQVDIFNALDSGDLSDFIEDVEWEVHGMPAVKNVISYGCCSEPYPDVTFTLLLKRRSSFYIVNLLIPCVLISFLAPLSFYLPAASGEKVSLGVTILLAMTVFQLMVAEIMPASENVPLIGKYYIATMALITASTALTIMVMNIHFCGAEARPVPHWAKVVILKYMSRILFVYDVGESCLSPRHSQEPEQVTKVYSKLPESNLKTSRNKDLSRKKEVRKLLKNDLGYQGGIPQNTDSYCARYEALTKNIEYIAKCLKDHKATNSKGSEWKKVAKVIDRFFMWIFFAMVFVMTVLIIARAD
# Chain of α9/α10 nicotinic acetylcholine receptors (Q9JLB5 25-447): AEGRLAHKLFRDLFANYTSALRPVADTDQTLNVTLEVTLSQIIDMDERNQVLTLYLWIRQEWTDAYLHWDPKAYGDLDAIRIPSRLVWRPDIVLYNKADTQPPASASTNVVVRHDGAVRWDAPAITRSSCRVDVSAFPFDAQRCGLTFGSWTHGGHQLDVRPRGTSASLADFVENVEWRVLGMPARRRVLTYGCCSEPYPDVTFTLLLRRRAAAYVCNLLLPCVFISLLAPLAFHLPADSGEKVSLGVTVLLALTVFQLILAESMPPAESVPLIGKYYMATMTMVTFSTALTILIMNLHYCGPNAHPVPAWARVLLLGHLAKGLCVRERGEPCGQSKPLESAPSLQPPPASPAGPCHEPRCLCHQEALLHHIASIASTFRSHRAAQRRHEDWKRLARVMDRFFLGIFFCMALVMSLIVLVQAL
# [3] = target: T1, 5-HT3 receptors (Homo sapiens, UniProt P46098); conditions: cited from earlier work
# T1 sequence (P46098 24-478): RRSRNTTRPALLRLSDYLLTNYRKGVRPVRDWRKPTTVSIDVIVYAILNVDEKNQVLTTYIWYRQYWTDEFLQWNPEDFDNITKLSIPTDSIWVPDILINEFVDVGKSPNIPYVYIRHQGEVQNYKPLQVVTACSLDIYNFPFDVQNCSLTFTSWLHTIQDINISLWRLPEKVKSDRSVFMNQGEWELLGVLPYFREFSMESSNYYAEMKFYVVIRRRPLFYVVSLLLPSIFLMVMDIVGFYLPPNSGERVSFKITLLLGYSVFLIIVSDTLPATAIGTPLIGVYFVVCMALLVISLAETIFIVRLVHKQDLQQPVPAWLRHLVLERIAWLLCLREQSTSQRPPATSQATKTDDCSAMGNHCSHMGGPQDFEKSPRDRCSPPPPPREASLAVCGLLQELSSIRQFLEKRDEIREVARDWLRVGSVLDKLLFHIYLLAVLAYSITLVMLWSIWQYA
# [4] = Tinnitus associated with age-related hearing loss at hearing threshold of 25 dB or more in both ears in 4000 Hz and 8000 Hz
# [5] = Tinnitus associated with age-related hearing loss at hearing threshold of 25 dB or more in both ears in 8000 Hz
# [6] = Tinnitus associated with age-related hearing loss, exhibiting auditory disorder (>25 dB) in the range of the human voice
# [7] = Tinnitus associated with auditory disorder (>25 dB) in the range of the human voice
# [8] = Tinnitus including tinnitus sound not of high-frequency alone
# [9] = Tinnitus including two or more different tinnitus sounds, associated with age-related hearing loss, exhibiting auditory disorder (>25 dB) in the range of the human voice
# [10] = Tinnitus including two or more different tinnitus sounds, associated with age-related hearing loss
# [11] = Tinnitus including two or more different tinnitus sounds
smiles,measurement,setting,value
"CC1(C)CC(C)(C)CC(C)(N)C1 [Neramexane, 1-amino-1,3,3,5,5-pentamethylcyclohexane]","Change in TRSw score, Neramexane-placebo",[1]; [4],−2.0
same,Change in TRSw score,[1]; [4],−2.5
same,"Change in TRSw score, Neramexane-placebo",[1]; [5],−1.5
same,Change in TRSw score,[1]; [5],−2.2
same,"Change in TRSw score, Neramexane-placebo",[1]; [6],−2.0
same,Change in TRSw score,[1]; [6],−3.6
same,"Change in TRSw score, Neramexane-placebo",[1]; Tinnitus associated with age-related hearing loss,−0.5
same,Change in TRSw score,"[1]; Tinnitus associated with age-related hearing loss, least mean squares",−2.5
same,"Change in TRSw score, Neramexane-placebo",[1]; [7],−0.6
same,Change in TRSw score,[1]; [7],−1.7
same,"Change in TRSw score, Neramexane-placebo",[1]; [8],−0.7
same,Change in TRSw score,[1]; [8],−2.0
same,"Change in TRSw score, Neramexane-placebo",[1]; [9],−4.7
same,Change in TRSw score,[1]; [9],−5.0
same,"Change in TRSw score, Neramexane-placebo",[1]; [10],−2.7
same,Change in TRSw score,[1]; [10],−4.1
same,"Change in TRSw score, Neramexane-placebo",[1]; [11],−0.5
same,Change in TRSw score,[1]; [11],−2.2
same,therapeutic effect compared to placebo,"[1]; combined groups: age-related hearing loss with auditory disorder >25 dB, two or more sounds with age-related hearing loss, all three criteria",unexpectedly excellent therapeutic effect
same,therapeutic effect compared to placebo,"[1]; single-criterion groups: age-related hearing loss, auditory disorder >25 dB in range of human voice, two or more tinnitus sounds, sound not high-frequency alone",superior therapeutic effect
same,inhibiting activity on α9/α10 nicotinic acetylcholine receptors,[2],exhibits inhibiting activity
same,inhibiting activity on 5-HT3 receptors,[3],exhibits inhibiting activity
